Consider 2 molecules from patent US11680049B2, “Certain (2S)-N-[(1S)-1-cyano-2-phenylethyl]-1,4-oxazepane-2-carboxamides as dipeptidyl peptidase 1 inhibitors” (AstraZeneca AB, priority 2014, dated 2023).

The conditions of data set [1]: described in literature (Schmidt et al. 1984); concomitant ultra-structural changes by electron microscopy; cited from earlier work.
A short description of data set [2]: Rat quantitative whole-body autoradiography (QWBA) studies, aortic retention. The class given is in vivo.

`CC(c1ccc(Cl)c(Cl)c1)N1N=C(N)CC1=O` (centres unmarked) [muzolimine]: the “retention in the aorta in QWBA studies” value in data set [1] was “retained selectively in the aorta”.
Turning to `N#Cc1ccc(-c2ccc(C[C@@H](C#N)NC(=O)C3(N)CCOCC3)cc2)cc1` [WO2010/128324 (Ex. 3), 4-amino-N-[(1S)-1-cyano-2-(4′-cyanobiphenyl-4-yl)ethyl]tetrahydro-2H-pyran-4-carboxamide], the “aortic retention in rat QWBA studies” value in data set [2] is “high level of aortic retention”.
